According to patent US8114892B2, “Methods and compositions for the treatment of Parkinson's Disease” (The McLean Hospital Corporation, priority 2006, dated 2012):
Entries after “also recorded” stand apart in the source; their conditions may differ.

Legend:
Format in all cases: cell-based
[1] = biological target: T1, Nurr1 (Homo sapiens, UniProt P43354); assay: Primary screening: Nurr1 effector with 2.6-TH promoter firefly luciferase reporter, transient transfection in SK-N-BE(2)C cells; settings: incubation for eighteen hours; for Hit identification in repeated primary screening (luciferase activity): pcDNA-Nurr1 construct
T1 construct: effector plasmid containing the Nurr1 gene; expressed in transfected cells; host or cells: SK-N-BE(2)C human neuroblastoma cells, transient transfection
Experimental: FIG. 5A is a chart showing preliminary screening data with a small chemical library. Transiently expressed Nurr1 activity in SK-N-BE(2)C cells was measured by luciferase activity with 2.6-TH promoter after incubation with each compound for eighteen hours. […] Each column has eight different chemical compounds. FIG. 5B is a chart showing further preliminary screening data with a small chemical library. Transiently expressed Nurr1 activity in SK-N-BE(2)C cells was measured by luciferase activity with 2.6-TH promoter after incubation with each compound for eighteen hours. […] Each column has eight different chemical compounds.
Transiently expressed Nurr1 activity in SK-N-BE(2)C cells was measured by luciferase activity after incubation of each compound with the pcDNA-Nurr1 construct for eighteen hours.
A cell-based system exploiting Nurr1's activation of TH was created in order to develop an assay for identification of Nurr1-activating compounds. […] In addition, a transient transfection was selected, rather than using stable cell-line transfection, to favor the maximum responsiveness of compounds to the reporter gene in order to detect low-affinity hit chemicals in the first screening. Another parameter considered was the selection of short-sized natural TH promoters with all essential NBRE (Nurr1-binding)-like motifs rather than one specific kind of NBRE-motif, based on the assumption that the natural promoter generates closer biological screening condition than artificially copied promoter and the false positive chemicals due to the interaction of other unrelated transcription factors can be easily ruled out by the effective secondary screening method.
To explore this new Nurr1 cell based assay system, several combinations of variable parameters, including effector gene promoter, internal control gene promoter, TH promoter size, promoter of internal control gene, transient transfection condition, serum concentration, and DMSO effect were tried. […]

[2] = biological target: T2, GAL4 DBD-Nurr1 LBD (Homo sapiens, UniProt P43354); assay: Secondary screening: GAL4-DBD construct fused with Nurr1-LBD, luciferase reporter in SK-N-BE(2)C cells; settings: incubation for eighteen hours
T2 construct: expressed in transfected cells; host or cells: SK-N-BE(2)C cells, transient transfection
Experimental: FIG. 7 includes a chart showing secondary screening data with primary hit chemicals. Transiently expressed Nurr1 activity in SK-N-BE(2)C cells was measured by luciferase activity after incubation of each compound with GAL4-DBD construct fused with Nurr1-LBD for eighteen hours. […] Also shown is a schematic representation of the GAL4-DBD-Nurr1-LBD fusion construct activating the firefly luciferase reporter gene.
As a secondary screening system, GAL4 DNA binding domain (DBD) constructs were used, which separately fused whole Nurr1, Nurr1-ligand binding domain (LBD), or Nurr1-DNA binding domain to the yeast GAL4 DBD. […] 6-MP, regulating Nurr1 through a region in the amino terminus, was used as a negative control in this experiment.

[3] = tested on: mouse ES cell-derived neurons (ES cell lines D3 and J1); assay: Dopaminergic neuronal differentiation of ES cells in vitro (5-stage method), TH+/Tuj1+ immunostaining; settings: 2 uM added at day five of the ES-derived neuronal stage for four days
From the text: FIG. 10A is a pair of photos showing embryonic stem (ES) cell-derived neurons subjected to an indirect immunohistochemical assay (TH+/Tuj1+ staining). ES-derived neurons were immunolabeled with anti-β-tubulin III and anti-TH. Superposition of both proteins under a fluorescent microscope is shown in white. DMSO was used as a control.
For in vitro differentiation of ES cells, we used the 5-stage method, which is known in the art (see, e.g., Lee et al., Nat. Biotechnol. 18:675-679, 2000) and is useful for distinguishing each stage of developmental progression of ES cells. The mouse blastocyst-derived ES cell lines D3 and J1 were propagated and maintained according to methods well-known in the art (see, e.g., Deacon et al., Exp. Neurol., 149:28-41, 1998, and Chung et al., Stem Cells, 20:139-145, 2002). The mouse ES cells were generated as embryoid bodies (EBs) on nonadherent bacterial dishes for four days in growth medium consisting of DMEM supplemented with 2 mM L-glutamine, 0.001% β-mercaptoethanol, 1× non-essential amino acids (all from Invitrogen), and 10% FBS (Hyclone). The EBs were then plated onto adhesive tissue culture dish surfaces. After 24 hours in culture, selection of nestin-positive cells was performed in serum-free ITSFn medium. […]

T2 sequence (P43354 360-595 limits assumed): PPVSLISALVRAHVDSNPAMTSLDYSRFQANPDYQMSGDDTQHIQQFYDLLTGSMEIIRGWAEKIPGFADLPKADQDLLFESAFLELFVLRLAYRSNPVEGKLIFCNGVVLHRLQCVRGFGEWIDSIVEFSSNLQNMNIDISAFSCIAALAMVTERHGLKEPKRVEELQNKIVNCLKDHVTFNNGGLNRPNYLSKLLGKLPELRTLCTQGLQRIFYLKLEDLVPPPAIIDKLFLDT
T2 sequence (P04386 1-147 partner limits assumed): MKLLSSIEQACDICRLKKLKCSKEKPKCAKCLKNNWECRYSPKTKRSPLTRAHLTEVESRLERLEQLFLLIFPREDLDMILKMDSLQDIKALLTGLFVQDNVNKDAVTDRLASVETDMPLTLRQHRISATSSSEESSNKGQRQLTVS
T1 sequence (P43354 whole entry): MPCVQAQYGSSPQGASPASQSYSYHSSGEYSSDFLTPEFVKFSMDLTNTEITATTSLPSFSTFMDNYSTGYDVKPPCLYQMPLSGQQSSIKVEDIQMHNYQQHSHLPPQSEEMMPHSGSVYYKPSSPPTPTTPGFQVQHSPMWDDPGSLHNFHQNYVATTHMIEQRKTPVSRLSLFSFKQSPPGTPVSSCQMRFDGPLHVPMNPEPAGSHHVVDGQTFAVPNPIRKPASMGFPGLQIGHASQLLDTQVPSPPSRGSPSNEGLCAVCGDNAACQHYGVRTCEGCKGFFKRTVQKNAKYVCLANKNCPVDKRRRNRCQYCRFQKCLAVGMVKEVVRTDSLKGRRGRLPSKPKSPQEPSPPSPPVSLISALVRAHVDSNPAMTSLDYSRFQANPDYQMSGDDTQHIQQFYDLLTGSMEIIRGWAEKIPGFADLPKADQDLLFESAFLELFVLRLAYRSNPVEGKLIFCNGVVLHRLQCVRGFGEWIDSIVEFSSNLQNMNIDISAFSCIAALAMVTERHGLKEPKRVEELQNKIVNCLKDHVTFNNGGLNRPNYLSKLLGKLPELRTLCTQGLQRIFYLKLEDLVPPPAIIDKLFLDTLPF

Row | Luciferase activity compared to control with DMSO, preliminary screening ([1]; 2.6-TH promoter) | SMILES | Hit identification in repeated primary screening (luciferase activity) [1] | Hit identification in secondary screening (luciferase activity) [2] | Hit identification in secondary screening (luciferase activity) ([2]; listed as Amodiaquine) | Hit identification in secondary screening (luciferase activity) ([2]; listed as amodiaquine) | Number of TH+ cells during in vitro ES cell differentiation, in comparison with the control DMSO [3]
1 |  | O=C(OCC(O)CO)c1ccccc1Nc1ccnc2cc(Cl)ccc12 (stereo not shown) [Glafenine (11D), glafenine] | hit candidates | identified as hit candidate compounds; also recorded: hit candidates |  |  | 
2 | apparent increase in luciferase activity | CCN(CC)CCCC(C)Nc1ccnc2cc(Cl)ccc12 (stereo not shown) [Chloroquine diphosphate, chloroquine diphosphate] |  |  |  |  | 
3 |  | CCN(CC)Cc1cc(Nc2ccnc3cc(Cl)ccc23)ccc1O [Amodiaquine (4E), amodiaquine] | hit candidates |  | identified as hit candidate compounds | hit candidates | increased the number of TH+ cells
